Here are results for seven compounds from patent publication US6316409A, “Modified ligands of calcium-dependent binding proteins” (Medical Research Council, priority 1996, dated 2001).

Entries after “also recorded” stand apart in the source; their conditions may differ. Peptide text beside a SMILES is read from it.

One assay has as its target calmodulin (Bos taurus, UniProt P62157). The assay can be described thus: koff by competition experiments, native PAGE of fluorescein-labelled peptide/calmodulin complexes. The format is binding, bovine. Set-up: Complexes between calmodulin from bovine brain (1 μM, Sigma); purchased Sigma; host or cells: bovine brain (tissue-derived). The conditions noted are these: for dissociation from calmodulin in competition with excess unlabelled peptide, in words: FIG. 3; for koff: competition with 30-fold excess unlabelled peptide, room temperature, gel buffer, read-out: koff (s^-1)^C. As for the experimental part:
Complexes between calmodulin from bovine brain (1 μM, Sigma) and fluorescein-labelled sMLCK-derived peptides (as described in Table 1 (SEQ ID NOS:2-18)) were prepared in gel buffer (25% gel mix [4 g sucrose+1 mg bromophenol blue in water to give a 10 ml solution]+75% TBSC [50 mM TRIS pH 7.4, […]+50 μM CaCl2)] and run on a 15% native PAGE gel (5 ml 30% acrylamide-bisacrylamide solution+4.5 ml water+0.5 ml 3M Tris, pH 8.8, +1 μl 1M CaCl2 polymerised with 30 μl 25% ammonium persulphate and 9 μl TEMED) using 14.4 g/l glycine+3 g/l Tris-base+0.1 mM CaCl2 as running buffer. Peptides were labelled either with iodoacetamido fluorescein (Molecular Probes) or with iodoacetamido-LC-biotin (Pierce) essentially as previously described by Neri et al., (1995). In these conditions, the fluorescence of the positively-charged labelled peptides can be detected only if they form a stable complex with calmodulin.
In order to obtain an independent experimental confirmation if the BIAcore results, koff constants for peptides 1-17 towards calmodulin were determined by competition experiments. 30 nM fluorescein-labelled peptide/calmodulin complexes in gel buffer were competed at room temperature for different times with 30-fold excess of unlabelled peptide. The resulting mixtures were run on native PAGE gels and imaged by LUANA as described above. The bands in the image obtained were integrated using the LUANA software (Neri et al., 1996) and the corresponding intersities plotted versus time and fitted with a single exponential, from which koff constants were derived. In order to normalise band intensities against pipetting errors, the samples contained 6 nM free fluorescein which ran with the front. The fluorescein bands were integrated and used to normalise the calmodulin/fluorescent peptide complex band intensity. The results of competitions for peptides 1, 2, 3, 6, 9, and 14 are shown in this FIG. 3. Incubation time in minutes is indicated under the lanes.
The volumes of the bands were plotted versus competition time and fitted to a single exponential, from which koff values were derived.
The fastest competitions (peptides 1-4, 9 and 13, SEQ ID NOS:2-5,10, and 14) were over by the time the calmodulin/fluorescent peptide complex entered the gel (approximately 5-10 minutes from pipetting a molar excess of unlabelled peptide; FIG. 3), from which a condition on the off-rate constant koff >1×10^-3 s^-1 was derived. Even for these fast off-rates, complexes can be detected by native polyacrylamide gel electrophoresis because of the well known gel "cage effect" (Fried and Crothers, 1981; Garner and Revzin, 1981).

Assay [1] addresses T1, bovine brain calmodulin (Bos taurus, UniProt P62157).
T1 construct: Complexes between calmodulin from bovine brain (1 μM, Sigma); purchased Sigma; host or cells: bovine brain (tissue-derived)
The assay can be described thus: stopped-flow measurement of kisom of calmodulin-binding peptides. Conditions: changes in tryptophan fluorescence. An excerpt:
It has been shown by Torok and Trentham (1994) that smooth muscle MLCK-derived peptides bind to calmodulin with a biphasic kinetic according to the scheme: [drawing 1]
in which P is the peptide, C is calmodulin, P-C is the first complex formed on association of P and C, which then undergoes a conformational isomerisation to P-C*.
(§1) For a kinetic and thermodynamic characterisation of the binding of the peptides of the present invention to bovine brain calmodulin, we have measured the kinetic isomerisation, association, and dissociation constants from which dissociation constants can be derived.
kisom constants have been measured by stopped-flow, detecting changes in tryptophan fluorescence for all the peptides except 3 (SEQ ID NO:4), in which the tryptophan is replaced by alanine.

For assay [2], the target named is T1, bovine brain calmodulin. Briefly: BIAcore surface plasmon resonance, kon and koff of calmodulin binding to biotinylated peptides. Conditions: for koff: read-out: koff (s^-1)^B; for kon: read-out: kon (s^-1 M^-1)^B; for improvement in Kd / affinity for calmodulin over the wild type peptide, in words: Table 1.
From the text: as §1
koff =k-1·k-2 /(k+2 +k-2)
Real-time interaction analysis by surface plasmon resonance on a BIAcore instrument (Jonsson et al., 1991) was used to determine kon and koff constants. Biotinylated peptides 1-17 were bound to commercially available streptavidin-coated microsensor chips (Pharmacia Biosensor), in order to achieve a surface capacity of 100-200 surface plasmon resonance units of calmodulin bound. Different concentrations of calmodulin (5, 10, 20, 50 and 100 nM in the order of FIG. 2) were injected and allowed to associate with the peptides. Regeneration of the surface was achieved by injection of 5 μl TBS+[…] which dissociates the calmodulin-peptide complex.
Background: SPR reads the build-up and loss of mass on a sensor chip optically.

By koff is commonly meant a measure of how fast the partners let go of each other. The kon is the second-order rate constant of association. Turning to `CC[C@H](C)[C@H](NC(=O)[C@H](Cc1ccccc1)NC(=O)[C@H](C)NC(=O)[C@H](CCCCN)NC(=O)[C@H](CCCCN)NC(=O)[C@H](Cc1c[nH]c2ccccc12)NC(=O)[C@H](CCCNC(=N)N)NC(=O)[C@H](C)NC(=O)[C@H](C)NC(=O)[C@H](C)NC(=O)[C@@H](N)CS)C(=O)N[C@@H](C)C(=O)N[C@H](C(=O)N[C@@H](CO)C(=O)N[C@@H](C)C(=O)N[C@@H](C)C(=O)N[C@@H](CC(N)=O)C(=O)N[C@@H](CCCNC(=N)N)C(=O)N[C@@H](Cc1ccccc1)C(=O)N[C@@H](CCCCN)C(=O)N[C@@H](CCCCN)C(=O)N[C@H](C(=O)N[C@@H](CO)C(N)=O)[C@@H](C)CC)C(C)C` [Peptide 6] (H-CAAARWKKAFIAVSAANRFKKIS-NH2; N-terminus assumed), on calmodulin, the “dissociation from calmodulin in competition with excess unlabelled peptide, in words” value (“dissociation from calmodulin” below) is “hardly competed by an excess of unlabelled peptide after 1000 minutes” and the koff was 2.2e-06 s⁻¹. In addition, on bovine brain calmodulin [1], the “kisom. (s^-1)^A” value was 1.8 (10.9) × 10^-1 s^-1. Also, on bovine brain calmodulin [2], the “improvement of koff with respect to wild type, in words” value was “largest improvements” and the “improvement in Kd / affinity for calmodulin over the wild type peptide, in words” value is “greatest improvement in affinity; also recorded: greatest improvement in Kd”. Further, at bovine brain calmodulin [2] (BIAcore), the koff was at least 0.0001 s⁻¹ and the kon was determined as 980000 M⁻¹ s⁻¹.
Turning to `CC[C@H](C)[C@H](NC(=O)[C@H](Cc1ccccc1)NC(=O)[C@H](CC(N)=O)NC(=O)[C@H](CCCCN)NC(=O)[C@H](CCCCN)NC(=O)[C@H](Cc1c[nH]c2ccccc12)NC(=O)[C@H](CCCNC(=N)N)NC(=O)[C@H](C)NC(=O)[C@H](C)NC(=O)[C@H](C)NC(=O)[C@@H](N)CS)C(=O)N[C@@H](C)C(=O)N[C@H](C(=O)N[C@@H](CO)C(=O)N[C@@H](C)C(=O)N[C@@H](C)C(=O)N[C@@H](CC(N)=O)C(=O)N[C@@H](CCCNC(=N)N)C(=O)N[C@@H](C)C(=O)N[C@@H](CCCCN)C(=O)N[C@@H](CCCCN)C(=O)N[C@H](C(=O)N[C@@H](CO)C(N)=O)[C@@H](C)CC)C(C)C` [Peptide 13] (H-CAAARWKKNFIAVSAANRAKKIS-NH2; N-terminus assumed), the koff at calmodulin was at least 0.001 s⁻¹; on bovine brain calmodulin [2] (BIAcore), 0.00084 s⁻¹. The “kisom. (s^-1)^A” value on bovine brain calmodulin [1] is 1.8 (10.8) × 10^-1 s^-1. Further, the kon on bovine brain calmodulin [2] (BIAcore) stood at 930000 M⁻¹ s⁻¹.
Take `CC[C@H](C)[C@H](NC(=O)[C@H](Cc1ccccc1)NC(=O)[C@H](CC(N)=O)NC(=O)[C@H](CCCCN)NC(=O)[C@H](CCCCN)NC(=O)[C@H](Cc1c[nH]c2ccccc12)NC(=O)[C@H](CCCNC(=N)N)NC(=O)[C@H](C)NC(=O)[C@H](C)NC(=O)[C@H](C)NC(=O)[C@@H](N)CS)C(=O)N[C@@H](C)C(=O)N[C@H](C(=O)N[C@@H](CO)C(=O)N[C@@H](C)C(=O)N[C@@H](C)C(=O)N[C@@H](CC(N)=O)C(=O)N[C@@H](C)C(=O)N[C@@H](Cc1ccccc1)C(=O)N[C@@H](CCCCN)C(=O)N[C@@H](CCCCN)C(=O)N[C@H](C(=O)N[C@@H](CO)C(N)=O)[C@@H](C)CC)C(C)C` [Peptide 12] (H-CAAARWKKNFIAVSAANAFKKIS-NH2; N-terminus assumed): at calmodulin, the koff is 0.00083 s⁻¹. Further, at bovine brain calmodulin [1], the “kisom. (s^-1)^A” value is 1.7 (10.4) × 10^-1 s^-1. Moreover, at bovine brain calmodulin [2] (BIAcore), the koff was determined as 0.00041 s⁻¹ and the kon worked out at 1.6e+06 M⁻¹ s⁻¹.
For `CC[C@H](C)[C@H](NC(=O)[C@H](C)NC(=O)[C@H](CCCCN)NC(=O)[C@H](Cc1ccccc1)NC(=O)[C@H](CCCNC(=N)N)NC(=O)[C@H](CC(N)=O)NC(=O)[C@H](C)NC(=O)[C@H](C)NC(=O)[C@H](CO)NC(=O)[C@@H](NC(=O)[C@H](C)NC(=O)[C@@H](NC(=O)[C@H](Cc1ccccc1)NC(=O)[C@H](CC(N)=O)NC(=O)[C@H](CCCCN)NC(=O)[C@H](CCCCN)NC(=O)[C@H](Cc1c[nH]c2ccccc12)NC(=O)[C@H](CCCNC(=N)N)NC(=O)[C@H](C)NC(=O)[C@H](C)NC(=O)[C@H](C)NC(=O)[C@@H](N)CS)[C@@H](C)CC)C(C)C)C(=O)N[C@@H](CO)C(N)=O` [Peptide 15] (H-CAAARWKKNFIAVSAANRFKAIS-NH2; N-terminus assumed) the same measures were 0.00021 s⁻¹, 1.2 (10.3) × 10^-1 s^-1, 0.00022 s⁻¹ and 1.1e+06 M⁻¹ s⁻¹.
For `CC[C@H](C)[C@H](NC(=O)[C@H](Cc1ccccc1)NC(=O)[C@H](CC(N)=O)NC(=O)[C@H](CCCCN)NC(=O)[C@H](CCCCN)NC(=O)[C@H](Cc1c[nH]c2ccccc12)NC(=O)[C@H](CCCNC(=N)N)NC(=O)[C@H](C)NC(=O)[C@H](C)NC(=O)[C@H](C)NC(=O)[C@@H](N)CS)C(=O)N[C@@H](C)C(=O)N[C@H](C(=O)N[C@@H](CO)C(=O)N[C@@H](C)C(=O)N[C@@H](C)C(=O)N[C@@H](CC(N)=O)C(=O)N[C@@H](CCCNC(=N)N)C(=O)N[C@@H](Cc1ccccc1)C(=O)N[C@@H](CCCCN)C(=O)N[C@@H](CCCCN)C(=O)N[C@H](C(=O)N[C@@H](CO)C(N)=O)[C@@H](C)CC)C(C)C` [Peptide 1, CAAA-RWKKNFIAVSAANRFKKIS-CONH2] (H-CAAARWKKNFIAVSAANRFKKIS-NH2; N-terminus assumed), on calmodulin, the “dissociation from calmodulin” value is listed as “dissociated from calmodulin in a few minutes” and the koff is at least 0.001 s⁻¹. Besides, the “kisom. (s^-1)^A” value at bovine brain calmodulin [1] is reported as 1.9 (10.7) × 10^-1 s^-1. At bovine brain calmodulin [2] (BIAcore), the off-rate constant (koff) amounted to 0.0024 s⁻¹ and the kon was found to be 650000 M⁻¹ s⁻¹.
Consider `CC[C@H](C)[C@H](NC(=O)[C@H](CCCCN)NC(=O)[C@H](CCCCN)NC(=O)[C@H](Cc1ccccc1)NC(=O)[C@H](CCCNC(=N)N)NC(=O)[C@H](CC(N)=O)NC(=O)[C@H](C)NC(=O)[C@H](C)NC(=O)[C@H](CO)NC(=O)[C@@H](NC(=O)[C@H](C)NC(=O)[C@@H](NC(=O)[C@H](Cc1ccccc1)NC(=O)[C@H](CC(N)=O)NC(=O)[C@H](CCCCN)NC(=O)[C@H](CCCCN)NC(=O)[C@H](Cc1c[nH]c2ccccc12)NC(=O)[C@H](CCCNC(=N)N)NC(=O)[C@H](C)NC(=O)[C@H](C)NC(=O)[C@H](C)NC(=O)[C@@H](N)CS)[C@@H](C)CC)C(C)C)C(=O)N[C@@H](C)C(N)=O` [Peptide 17] (H-CAAARWKKNFIAVSAANRFKKIA-NH2; N-terminus assumed), for which the koff at calmodulin was determined as 7e-05 s⁻¹. Besides, the “kisom. (s^-1)^A” value at bovine brain calmodulin [1] is 1.3 (10.4) × 10^-1 s^-1. In addition, on bovine brain calmodulin [2], the “improvement of koff with respect to wild type, in words” value was “largest improvements” and the “improvement in Kd / affinity for calmodulin over the wild type peptide, in words” value is listed as “greatest improvement in Kd”. Also, on bovine brain calmodulin [2] (BIAcore), the koff stood at 0.00013 s⁻¹ and the kon worked out at 820000 M⁻¹ s⁻¹.
Regarding `CC[C@H](C)[C@H](NC(=O)[C@H](Cc1ccccc1)NC(=O)[C@H](CC(N)=O)NC(=O)[C@H](CCCCN)NC(=O)[C@H](CCCCN)NC(=O)[C@H](C)NC(=O)[C@H](CCCNC(=N)N)NC(=O)[C@H](C)NC(=O)[C@H](C)NC(=O)[C@H](C)NC(=O)[C@@H](N)CS)C(=O)N[C@@H](C)C(=O)N[C@H](C(=O)N[C@@H](CO)C(=O)N[C@@H](C)C(=O)N[C@@H](C)C(=O)N[C@@H](CC(N)=O)C(=O)N[C@@H](CCCNC(=N)N)C(=O)N[C@@H](Cc1ccccc1)C(=O)N[C@@H](CCCCN)C(=O)N[C@@H](CCCCN)C(=O)N[C@H](C(=O)N[C@@H](CO)C(N)=O)[C@@H](C)CC)C(C)C` [Peptide 3] (H-CAAARAKKNFIAVSAANRFKKIS-NH2; N-terminus assumed), on calmodulin, the “dissociation from calmodulin” value was “dissociated from calmodulin in a few minutes” and the koff is at least 0.001 s⁻¹. Further, on bovine brain calmodulin [2] (BIAcore), the “increase in kon with respect to the wild-type peptide 1” value is recorded as 4-5 fold, the koff is 0.005 s⁻¹ and the on-rate constant (kon) is 3.2e+06 M⁻¹ s⁻¹.
